Reference: ChEMBL document CHEMBL3885881, “DrugMatrix”

Species on record: Rattus norvegicus
Experiment: DrugMatrix - Regimen: Daily Repeat
Format: toxicity, organism-based, Sprague-Dawley
Design: regimen Daily Repeat, gender Male, age 6-8 weeks
Details: in vivo, po, route oral GAVAGE, vehicle .5 % CMC; for ABSOLUTE BASOPHIL / ABSOLUTE EOSINOPHIL / ABSOLUTE LYMPHOCYTE / ABSOLUTE MONOCYTE / ABSOLUTE SEGMENTED NEUTROPHIL / BASOPHIL / EOSINOPHIL / ERYTHROCYTE COUNT / HEMATOCRIT / HEMOGLOBIN / LEUKOCYTE COUNT / LYMPHOCYTE / MEAN CORPUSCULAR HEMOGLOBIN / MEAN CORPUSCULAR HEMOGLOBIN CONCENTRATION / MEAN CORPUSCULAR VOLUME / MONOCYTE / NEUTROPHIL / NUCLEATED RED BLOOD CELLS / PLATELET COUNT: tissue Blood; for ALANINE AMINOTRANSFERASE / ALBUMIN / ALKALINE PHOSPHATASE / ASPARTATE AMINOTRANSFERASE / BLOOD UREA NITROGEN / CARBON DIOXIDE / CHLORIDE / CHOLESTEROL / CREATINE PHOSPHOKINASE / CREATININE / GLUCOSE / LACTATE DEHYDROGENASE / LIPASE / PHOSPHORUS / POTASSIUM / SODIUM / TOTAL BILIRUBIN / TOTAL PROTEIN / URIC ACID: tissue Plasma
[1] = 500 mg/kg, 120 h, dose level Low, time 5 day
[2] = 1500 mg/kg, 72 h, dose level High, time 3 day
[3] = 1500 mg/kg, 120 h, dose level High, time 5 day

CC(C)(Sc1cc(C(C)(C)C)c(O)c(C(C)(C)C)c1)Sc1cc(C(C)(C)C)c(O)c(C(C)(C)C)c1 [PROBUCOL]
ABSOLUTE BASOPHIL [1]: 0 CELLS/uL | ABSOLUTE EOSINOPHIL [1]: 211 CELLS/uL | ABSOLUTE LYMPHOCYTE [1]: 10866.33 CELLS/uL | ABSOLUTE MONOCYTE [1]: 0 CELLS/uL | ABSOLUTE SEGMENTED NEUTROPHIL [1]: 1022.67 CELLS/uL | BASOPHIL [1]: 0% | EOSINOPHIL [1]: 1.67% | ERYTHROCYTE COUNT [1]: 5.74 x10E6/uL | HEMATOCRIT [1]: 36.53% | HEMOGLOBIN [1]: 13.67 G/DL | LEUKOCYTE COUNT [1]: 12.1 x10E3/uL | LYMPHOCYTE [1]: 90% | MEAN CORPUSCULAR HEMOGLOBIN [1]: 23.87 pg | MEAN CORPUSCULAR HEMOGLOBIN CONCENTRATION [1]: 37.43 G/DL | MEAN CORPUSCULAR VOLUME [1]: 63.7 fL | MONOCYTE [1]: 0% | NEUTROPHIL [1]: 8.33% | NUCLEATED RED BLOOD CELLS [1]: 0 /100WBC | PLATELET COUNT [1]: 1159.33 x10E3/uL | ALANINE AMINOTRANSFERASE [1]: 45.67 u/L | ALBUMIN [1]: 4.33 G/DL | ALKALINE PHOSPHATASE [1]: 362 u/L | ASPARTATE AMINOTRANSFERASE [1]: 76.33 u/L | BLOOD UREA NITROGEN [1]: 15.33 mg/dL | CARBON DIOXIDE [1]: 25.67 mmol/L | CHLORIDE [1]: 102 MEQ/L | CHOLESTEROL [1]: 70.33 mg/dL | CREATINE PHOSPHOKINASE [1]: 180.67 u/L | CREATININE [1]: 0.2 mg/dL | GLUCOSE [1]: 163.67 mg/dL | LACTATE DEHYDROGENASE [1]: 162.67 u/L | LIPASE [1]: 9 u/L | PHOSPHORUS [1]: 11.63 mg/dL | POTASSIUM [1]: 6.21 MEQ/L | SODIUM [1]: 144 MEQ/L | TOTAL BILIRUBIN [1]: 0.2 mg/dL | TOTAL PROTEIN [1]: 6.1 G/DL | URIC ACID [1]: 1.83 mg/dL | ABSOLUTE BASOPHIL [2]: 0 CELLS/uL | ABSOLUTE EOSINOPHIL [2]: 183 CELLS/uL | ABSOLUTE LYMPHOCYTE [2]: 12835.33 CELLS/uL | ABSOLUTE MONOCYTE [2]: 38 CELLS/uL | ABSOLUTE SEGMENTED NEUTROPHIL [2]: 1443.67 CELLS/uL | BASOPHIL [2]: 0% | EOSINOPHIL [2]: 1.33% | ERYTHROCYTE COUNT [2]: 5.49 x10E6/uL | HEMATOCRIT [2]: 34.77% | HEMOGLOBIN [2]: 13.37 G/DL | LEUKOCYTE COUNT [2]: 14.5 x10E3/uL | LYMPHOCYTE [2]: 88.33% | MEAN CORPUSCULAR HEMOGLOBIN [2]: 24.37 pg | MEAN CORPUSCULAR HEMOGLOBIN CONCENTRATION [2]: 38.47 G/DL | MEAN CORPUSCULAR VOLUME [2]: 63.33 fL | MONOCYTE [2]: 0.33% | NEUTROPHIL [2]: 10% | NUCLEATED RED BLOOD CELLS [2]: 0 /100WBC | PLATELET COUNT [2]: 1374.67 x10E3/uL | ALANINE AMINOTRANSFERASE [2]: 49.33 u/L | ALBUMIN [2]: 4.2 G/DL | ALKALINE PHOSPHATASE [2]: 412 u/L | ASPARTATE AMINOTRANSFERASE [2]: 77.33 u/L | BLOOD UREA NITROGEN [2]: 14.67 mg/dL | CARBON DIOXIDE [2]: 27.33 mmol/L | CHLORIDE [2]: 100 MEQ/L | CHOLESTEROL [2]: 65.67 mg/dL | CREATINE PHOSPHOKINASE [2]: 249.33 u/L | CREATININE [2]: 0.19 mg/dL | GLUCOSE [2]: 153.67 mg/dL | LACTATE DEHYDROGENASE [2]: 144 u/L | LIPASE [2]: 9 u/L | PHOSPHORUS [2]: 12.87 mg/dL | POTASSIUM [2]: 7.14 MEQ/L | SODIUM [2]: 143.67 MEQ/L | TOTAL BILIRUBIN [2]: 0.17 mg/dL | TOTAL PROTEIN [2]: 5.83 G/DL | URIC ACID [2]: 1.67 mg/dL | ABSOLUTE BASOPHIL [3]: 0 CELLS/uL | ABSOLUTE EOSINOPHIL [3]: 76.67 CELLS/uL | ABSOLUTE LYMPHOCYTE [3]: 11157.33 CELLS/uL | ABSOLUTE MONOCYTE [3]: 39 CELLS/uL | ABSOLUTE SEGMENTED NEUTROPHIL [3]: 1027 CELLS/uL | BASOPHIL [3]: 0% | EOSINOPHIL [3]: 0.67% | ERYTHROCYTE COUNT [3]: 5.53 x10E6/uL | HEMATOCRIT [3]: 34.87% | HEMOGLOBIN [3]: 13.07 G/DL | LEUKOCYTE COUNT [3]: 12.3 x10E3/uL | LYMPHOCYTE [3]: 90.67% | MEAN CORPUSCULAR HEMOGLOBIN [3]: 23.63 pg | MEAN CORPUSCULAR HEMOGLOBIN CONCENTRATION [3]: 37.5 G/DL | MEAN CORPUSCULAR VOLUME [3]: 63.03 fL | MONOCYTE [3]: 0.33% | NEUTROPHIL [3]: 8.33% | NUCLEATED RED BLOOD CELLS [3]: 0 /100WBC | PLATELET COUNT [3]: 1307 x10E3/uL | ALANINE AMINOTRANSFERASE [3]: 47.67 u/L | ALBUMIN [3]: 4.33 G/DL | ALKALINE PHOSPHATASE [3]: 423.67 u/L | ASPARTATE AMINOTRANSFERASE [3]: 74 u/L | BLOOD UREA NITROGEN [3]: 15.33 mg/dL | CARBON DIOXIDE [3]: 26.33 mmol/L | CHLORIDE [3]: 102.33 MEQ/L | CHOLESTEROL [3]: 63 mg/dL | CREATINE PHOSPHOKINASE [3]: 227.67 u/L | CREATININE [3]: 0.2 mg/dL | GLUCOSE [3]: 158.67 mg/dL | LACTATE DEHYDROGENASE [3]: 174.33 u/L | LIPASE [3]: 8.33 u/L | PHOSPHORUS [3]: 12.1 mg/dL | POTASSIUM [3]: 6.79 MEQ/L | SODIUM [3]: 145.27 MEQ/L | TOTAL BILIRUBIN [3]: 0.2 mg/dL | TOTAL PROTEIN [3]: 6.13 G/DL | URIC ACID [3]: 1.63 mg/dL
